Assay results as given in patent publication US20050203151A1, “Novel compounds, compositions and uses thereof for treatment of metabolic disorders and related conditions” (Kalypsys, Inc., priority 2003, published 2005).
Like-named read-outs stand apart in the source and are kept apart here.

How the values were obtained:
Assay type in all cases: cell-based
[1] = target: T1, PPAR-alpha (Homo sapiens, UniProt Q07869); assay: human PPAR-GAL4 chimera luciferase reporter assay in CV-1 cells, PPAR-alpha
T1 construct: expressed in transfected cells; host or cells: CV-1 cells
T1 sequence (Q07869 239-466 limits assumed): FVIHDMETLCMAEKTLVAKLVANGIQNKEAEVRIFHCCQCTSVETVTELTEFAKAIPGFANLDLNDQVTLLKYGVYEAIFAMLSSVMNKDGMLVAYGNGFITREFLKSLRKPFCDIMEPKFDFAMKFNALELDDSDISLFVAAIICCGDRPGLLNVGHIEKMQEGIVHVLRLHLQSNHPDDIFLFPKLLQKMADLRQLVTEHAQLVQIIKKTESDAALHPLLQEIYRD
Experimental: (§1) The compounds were evaluated in a cell-based assay to determine their human PPAR activity. The plasmids for human PPAR-GAL4 chimeras were prepared by fusing amplified cDNAs encoding the LBDs of PPARs to the C-terminal end of the yeast GAL4 DNA binding domain. CV-1 cells were grown and transiently transected with PerFectin (GTS, San Diego, Calif.) according to the manufacturer's protocol along with a luciferase reporter. Eight hours after transfection, 50 μl of cells were replated into 384 well plates ([…]). Sixteen hours after replating, cells were treated with either compounds or 1% DMSO for 24 hours. Luciferase activity was then assayed with Britelite (Perkin Elmer) following the manufacturer's protocol and measured with either the Perkin Elmer Viewlux or Molecular Devices Acquest.
(§2) Compounds may be screened for functional potency in transient transfection assays in CV-1 cells for their ability to activate the PPAR subtypes (transactivation assay). A previously established chimeric receptor system was utilized to allow comparison of the relative transcriptional activity of the receptor subtypes on the same synthetic response element and to prevent endogenous receptor activation from complicating the interpretation of results. See, for example, Lehmann, J. M.; Moore, L. B.; Smith-Oliver, T. A; Wilkinson, W. O.; Willson, T. M.; Kliewer, S. A., An antidiabetic thiazolidinedione is a high affinity ligand for peroxisome proliferator-activated receptory γ (PPARγ), J. Biol. Chem., 1995, 270, 12953-6. The ligand binding domains for murine and human PPAR-alpha, PPAR-gamma, and PPAR-delta are each fused to the yeast transcription factor GAL4 DNA binding domain. CV-1 cells were transiently transfected with expression vectors for the respective PPAR chimera along with a reporter construct containing four or five copies of the GAL4 DNA binding site driving expression of luciferase. After 8-16 h, the cells are replated into multi-well assay plates and the media is exchanged to phenol-red free DME medium supplemented with 5% delipidated calf serum. 4 hours after replating, cells were treated with either compounds or 1% DMSO for 20-24 hours. Luciferase activity was then assayed with Britelite (Perkin Elmer) following the manufacturer's protocol and measured with either the Perkin Elmer Viewlux or Molecular Devices Acquest (see, for example, Kliewer, S. A., et. al. Cell 1995, 83, 813-819). Rosiglitazone is used as a positive control in the hPPAR-γ assay. Wy-14643 and GW7647 is used as a positive control in the hPPAR-α assay. GW501516 is used as the positive control in the hPPAR-δ assay.

[2] = target: T2, PPAR-delta (Homo sapiens, UniProt Q03181); assay: human PPAR-GAL4 chimera luciferase reporter assay in CV-1 cells, PPAR-delta
T2 construct: expressed in transfected cells; host or cells: CV-1 cells
T2 sequence (Q03181 211-439 limits assumed): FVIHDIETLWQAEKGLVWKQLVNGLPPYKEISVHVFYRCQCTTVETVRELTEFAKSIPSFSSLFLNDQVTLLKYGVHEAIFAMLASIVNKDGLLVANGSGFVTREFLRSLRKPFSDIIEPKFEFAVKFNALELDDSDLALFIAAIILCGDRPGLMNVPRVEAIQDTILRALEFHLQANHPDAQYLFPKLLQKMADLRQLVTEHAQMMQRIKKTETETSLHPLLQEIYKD
Experimental: as §1, §2

[3] = target: T3, PPAR-gamma (Homo sapiens, UniProt P37231); assay: human PPAR-GAL4 chimera luciferase reporter assay in CV-1 cells, PPAR-gamma
T3 construct: expressed in transfected cells; host or cells: CV-1 cells
T3 sequence (P37231 238-503 limits assumed): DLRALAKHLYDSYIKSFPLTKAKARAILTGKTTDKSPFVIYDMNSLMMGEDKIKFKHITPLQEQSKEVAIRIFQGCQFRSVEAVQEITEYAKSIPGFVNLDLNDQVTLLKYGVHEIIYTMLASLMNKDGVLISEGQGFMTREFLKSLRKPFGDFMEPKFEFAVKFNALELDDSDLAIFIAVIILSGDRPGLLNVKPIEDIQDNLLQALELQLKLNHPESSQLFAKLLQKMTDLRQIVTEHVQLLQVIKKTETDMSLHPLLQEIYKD
Experimental: as §1, §2

[4] = Table 3, Examples 11-25, read-out: PPAR alpha (EC50)
[5] = Table 3, Examples 11-25, read-out: PPAR delta (EC50)
[6] = Table 3, Examples 11-25, read-out: PPAR gamma (EC50)
[7] = Table 2, Examples 1-10, read-out: PPAR α EC50
[8] = Table 2, Examples 1-10, read-out: PPAR δ EC50
[9] = Table 2, Examples 1-10, read-out: PPAR γ EC50

SMILES	EC50 [1, 4] [µM]	EC50 [2, 5] [µM]	EC50 [3, 6] [µM]	EC50 [1, 7] [µM]	EC50 [2, 8] [µM]	EC50 [3, 9] [µM]
Cc1nc(-c2ccc(C(F)(F)F)cc2)sc1CCn1ccc2ccc(OC(C)(C)C(=O)O)cc21 [Example 23, 2-Methyl-2-(1-{2-[4-methyl-2-(4-trifluoromethyl-phenyl)-thiazol-5-yl]-ethyl}-1H-indol-6-yloxy)-propionic acid]	< 5	5 to 100	5 to 100	–	–	–
Cc1nc(-c2ccc(C(F)(F)F)cc2)sc1Cn1ccc2cc(OCC(=O)O)ccc21 [Example 12, {1-[4-Methyl-2-(4-trifluoromethyl-phenyl)-thiazol-5-ylmethyl]-1H-indol-5-yloxy}-acetic acid]	5 to 100	5 to 100	5 to 100	–	–	–
Cc1nc(-c2ccc(C(F)(F)F)cc2)sc1Cn1ccc2cc(C(=O)O)ccc21 [Example 10, 1-[4-methyl-2-(4-trifluoromethyl-phenyl)-thiazol-5-ylmethyl]-1H-indole-5-carboxylic acid]	–	–	–	> 10	> 10	> 10
Cc1nc(-c2ccc(C(F)(F)F)cc2)sc1CCN1CCc2ccc(OCC(=O)O)cc21 [Example 25, (1-{2-[4-Methyl-2-(4-trifluoromethyl-phenyl)-thiazol-5-yl]-ethyl}-2,3-dihydro-1H-indol-6-yloxy)-acetic acid]	5 to 100	< 5	5 to 100	–	–	–
Cc1nc(-c2ccc(C(F)(F)F)cc2)sc1Cn1ccc2c(OCC(=O)O)cccc21 [Example 11, {1-[4-Methyl-2-(4-trifluoromethyl-phenyl)-thiazol-5-ylmethyl]-1H-indol-4-yloxy}acetic acid]	> 100	> 100	> 100	–	–	–
Cc1nc(-c2ccc(C(F)(F)F)cc2)sc1CCN1CCc2cc(OCC(=O)O)ccc21 [Example 17, (1-{2-[4-Methyl-2-(4-trifluoromethyl-phenyl)-thiazol-5-yl]-ethyl}-2,3-dihydro-1H-indol-5-yloxy)-acetic acid]	5 to 100	5 to 100	5 to 100	–	–	–
Cc1nc(-c2ccc(C(F)(F)F)cc2)sc1CCn1ccc2cc(OC(C)(C)C(=O)O)ccc21 [Example 21, 2-Methyl-2-(1-{2-[4-methyl-2-(4-trifluoromethyl-phenyl)-thiazol-5-yl]-ethyl}-1H-indol-5-yloxy)-propionic acid]	5 to 100	5 to 100	5 to 100	–	–	–
Cc1nc(-c2ccc(C(F)(F)F)cc2)sc1Cn1ccc2ccc(OC(C)(C)C(=O)O)cc21 [Example 16, 2-Methyl-2-{1-[4-methyl-2-(4-trifluoromethyl-phenyl)-thiazol-5-ylmethyl]-1H-indol-6-yloxy}-propionic acid]	5 to 100	< 5	5 to 100	–	–	–
Cc1nc(-c2ccc(C(F)(F)F)cc2)sc1CCN1CCc2cc(OC(C)(C)C(=O)O)ccc21 [Example 19, 2-Methyl-2-(1-{2-[4-methyl-2-(4-trifluoromethyl-phenyl)-thiazol-5-yl]-ethyl}-2,3-dihydro-1H-indol-5-yloxy)-propionic acid]	< 5	< 5	5 to 100	–	–	–
Cc1nc(-c2ccc(C(F)(F)F)cc2)sc1Cn1ccc2ccc(OCC(=O)O)cc21 [Example 13, {1-[4-Methyl-2-(4-trifluoromethyl-phenyl)-thiazol-5-ylmethyl]-1H-indol-6-yloxy}-acetic acid]	5 to 100	< 5	5 to 100	–	–	–
Cc1nc(-c2ccc(C(F)(F)F)cc2)sc1COc1ccc2c(ccn2CC(=O)O)c1 [Example 3, {5-[4-methyl-2-(4-trifluoromethyl-phenyl)-thiazol-5-ylmethoxy]-indol-1-yl}-acetic acid]	–	–	–	> 10	> 10	> 10
Cc1nc(-c2ccc(C(F)(F)F)cc2)sc1COc1cccc2c1ccn2CC(=O)O [Example 4, {4-[4-methyl-2-(4-trifluoromethyl-phenyl)-thiazol-5-ylmethoxy]-indol-1-yl}-acetic acid]	–	–	–	> 10	< 1	1 to 10
